The source of these data is patent US20240261249A1, “NOVEL SQUARAMIDE DERIVATIVE AND USE THEREOF” (PUSAN NATIONAL UNIVERSITY INDUSTRY-UNIVERSITY COOPERATION …, priority 2021, published 2024).

The test concerns Phospho-eIF2α (Ser51). Nature of the test: Phospho-eIF2α (Ser51) Sandwich ELISA in K562 cells. Format: cell-based. The conditions noted are these: Homo sapiens, K562, 6 h, serum-free RPMI, 10 μM compound, control = 1, read-out: eIF2α phosphorylation, absorbance standardized to control (DMSO-treated) set to 1, at 10 μM. The procedure:
Pathscan Phospho-eIF2α (Ser51) Sandwich ELISA Kit #7286 from Cell signaling was used. The K562 cell line was cultured in serum-free RPMI medium at 37° C. in the presence of 5% CO2. Cells were treated with test compounds at a concentration of 10 μM. Six hours after compound treatment, the cells were lysed with a lysis buffer included in the kit to obtain 50 μg of protein by quantification. Afterwards, ELISA assay was performed according to the manufacturer's protocol to obtain absorbance. The absorbance for each obtained compound was standardized to a value of which the control (DMSO-treated) is set to 1.
Background: ELISA stands for enzyme-linked immunosorbent assay.
For the compound `O=c1c(Nc2ccccc2)c(N[C@H]2CC[C@H](Oc3ccc(C(F)(F)F)cc3)CC2)c1=O` [Compound 8, 3-(Phenylamino)-4-(((1,4-trans)-4-(4-(trifluoromethyl)phenoxy)cyclohexyl)amino)cyclobut-3-ene-1,2-dione], the activity at 10 µM turned out to be 95%.

Regarding `N#Cc1ccc(O[C@H]2CC[C@H](Nc3c(Nc4ccccc4)c(=O)c3=O)CC2)cc1` [Compound 9, 4-(((1,4-trans)-4-((3,4-Dioxo-2-(phenylamino)cyclobut-1-en-1-yl)amino)cyclohexyl)oxy)benzonitrile], the activity at 10 µM was 88%.

Turning to `O=c1c(Nc2ccccc2)c(N[C@H]2CC[C@H](Oc3ccc([N+](=O)[O-])cc3)CC2)c1=O` [Compound 10, 3-(((1,4-trans)-4-(4-Nitrophenoxy)cyclohexyl)amino)-4-(phenylamino)cyclobut-3-ene-1,2-dione], the activity at 10 µM amounted to 84%.

With `CS(=O)(=O)c1ccc(O[C@H]2CC[C@H](Nc3c(Nc4ccccc4)c(=O)c3=O)CC2)cc1` [Compound 11, 3-(((1,4-trans)-4-(4-(Methylsulfonyl)phenoxy)cyclohexyl)amino)-4-(phenylamino)cyclobut-3-ene-1,2-dione], the activity at 10 µM came out at 94%.

For the compound `NS(=O)(=O)c1ccc(O[C@H]2CC[C@H](Nc3c(Nc4ccccc4)c(=O)c3=O)CC2)cc1` [Compound 12, 4-(((1,4-trans)-4-((3,4-Dioxo-2-(phenylamino)cyclobut-1-en-1-yl)amino)cyclohexyl)oxy)benzenesulfonamide], the activity at 10 µM was 81%.

With `O=c1c(Nc2cccc(F)c2)c(N[C@H]2CC[C@H](Oc3ccc(C(F)(F)F)cc3)CC2)c1=O` [Compound 13, 3-((3-Fluorophenyl)amino)-4-(((1,4-trans)-4-(4-(trifluoromethyl)phenoxy)cyclohexyl)amino)cyclobut-3-ene], the activity at 10 µM was 84%.

On to `N#Cc1ccc(O[C@H]2CC[C@H](Nc3c(Nc4cccc(F)c4)c(=O)c3=O)CC2)cc1` [Compound 14, 4-(((1,4-trans)-4-((2-((3-Fluorophenyl)amino)-3,4-dioxocyclobut-1-en-1-yl)amino)cyclohexyl)oxy)benzonitrile], for which the activity at 10 µM came out at 90%.

Consider `O=c1c(Nc2cccc(F)c2)c(N[C@H]2CC[C@H](Oc3ccc([N+](=O)[O-])cc3)CC2)c1=O` [Compound 15, 3-((3-Fluorophenyl)amino)-4-(((1,4-trans)-4-(4-nitrophenoxy)cyclohexyl)amino)cyclobut-3-ene-1,2-dione], for which the activity at 10 µM is 81%.

In the case of `CS(=O)(=O)c1ccc(O[C@H]2CC[C@H](Nc3c(Nc4cccc(F)c4)c(=O)c3=O)CC2)cc1` [Compound 16, 3-((3-Fluorophenyl)amino)-4-(((1,4-trans)-4-(4-(methylsulfonyl)phenoxy)cyclohexyl)amino)cyclobut-3-ene-1,2-dione], the activity at 10 µM came out at 84%.

Consider `NS(=O)(=O)c1ccc(O[C@H]2CC[C@H](Nc3c(Nc4cccc(F)c4)c(=O)c3=O)CC2)cc1` [Compound 17, 4-(((1,4-trans)-4-((2-((3-Fluorophenyl)amino)-3,4-dioxocyclobut-1-en-1-yl)amino)cyclohexyl)oxy)benzenesulfonamide], for which the activity at 10 µM is 86%.

With `O=c1c(Nc2cccc(Cl)c2)c(N[C@H]2CC[C@H](Oc3ccc(C(F)(F)F)cc3)CC2)c1=O` [Compound 18, 3-((3-Chlorophenyl)amino)-4-(((1,4-trans)-4-(4-(trifluoromethyl)phenoxy)cyclohexyl)amino)cyclobut-3-ene-1,2-dione], the activity at 10 µM is 71%.

On to `CS(=O)(=O)c1ccc(O[C@H]2CC[C@H](Nc3c(Nc4cccc(Cl)c4)c(=O)c3=O)CC2)cc1` [Compound 21, 3-((3-Chlorophenyl)amino)-4-(((1,4-trans)-4-(4-(methylsulfonyl)phenoxy)cyclohexyl)amino)cyclobut-3-ene-1,2-dione], for which the activity at 10 µM is 77%.

Turning to `NS(=O)(=O)c1ccc(O[C@H]2CC[C@H](Nc3c(Nc4cccc(Cl)c4)c(=O)c3=O)CC2)cc1` [Compound 22, 4-(((1,4-trans)-4-((2-((3-Chlorophenyl)amino)-3,4-dioxocyclobut-1-en-1-yl)amino)cyclohexyl)oxy)benzenesulfonamide], the activity at 10 µM stood at 219%.

For `NS(=O)(=O)c1ccc(O[C@H]2CC[C@H](Nc3c(Nc4cccc(C(F)(F)F)c4)c(=O)c3=O)CC2)cc1` [Compound 27, 4-(((1,4-trans)-4-((3,4-Dioxo-2-((3-(trifluoromethyl)phenyl)amino)cyclobut-1-en-1-yl)amino)cyclohexyl)oxy)benzenesulfonamide], the activity at 10 µM worked out at 108%.

With `COc1cccc(Nc2c(N[C@H]3CC[C@H](Oc4ccc(C#N)cc4)CC3)c(=O)c2=O)c1` [Compound 34, 4-(((1,4-trans)-4-((2-((3-Methoxyphenyl)amino)-3,4-dioxocyclobut-1-en-1-yl)amino)cyclohexyl)oxy)benzonitrile], the activity at 10 µM was found to be 83%.

Turning to `COc1cccc(Nc2c(N[C@H]3CC[C@H](Oc4ccc(S(C)(=O)=O)cc4)CC3)c(=O)c2=O)c1` [Compound 36, 3-((3-Methoxyphenyl)amino)-4-(((1,4-trans)-4-(4-(methylsulfonyl)phenoxy)cyclohexyl)amino)cyclobut-3-ene-1,2-dione], the activity at 10 µM worked out at 60%.

Regarding `COc1cccc(Nc2c(N[C@H]3CC[C@H](Oc4ccc(S(N)(=O)=O)cc4)CC3)c(=O)c2=O)c1` [Compound 37, 4-(((1,4-trans)-4-((2-((3-Methoxyphenyl)amino)-3,4-dioxocyclobut-1-en-1-yl)amino)cyclohexyl)oxy)benzenesulfonamide], the activity at 10 µM is 67%.

Take `O=c1c(Nc2ccc(F)cc2)c(N[C@H]2CC[C@H](Oc3ccc(C(F)(F)F)cc3)CC2)c1=O` [Compound 38, 3-((4-Fluorophenyl)amino)-4-(((1,4-trans)-4-(4-(trifluoromethyl)phenoxy)cyclohexyl)amino)cyclobut-3-ene-1,2-dione]: the activity at 10 µM was 65%.

In the case of `N#Cc1ccc(O[C@H]2CC[C@H](Nc3c(Nc4ccc(F)cc4)c(=O)c3=O)CC2)cc1` [Compound 39, 4-(((1,4-trans)-4-((2-((4-Fluorophenyl)amino)-3,4-dioxocyclobut-1-en-1-yl)amino)cyclohexyl)oxy)benzonitrile], the activity at 10 µM was found to be 83%.

Turning to `O=c1c(Nc2ccc(F)cc2)c(N[C@H]2CC[C@H](Oc3ccc([N+](=O)[O-])cc3)CC2)c1=O` [Compound 40, 3-((4-Fluorophenyl)amino)-4-(((1,4-trans)-4-(4-nitrophenoxy)cyclohexyl)amino)cyclobut-3-ene-1,2-dione], the activity at 10 µM amounted to 82%.

For `CS(=O)(=O)c1ccc(O[C@H]2CC[C@H](Nc3c(Nc4ccc(F)cc4)c(=O)c3=O)CC2)cc1` [Compound 41, 3-((4-Fluorophenyl)amino)-4-(((1,4-trans)-4-(4-(methylsulfonyl)phenoxy)cyclohexyl)amino)cyclobut-3-ene-1,2-dione], the activity at 10 µM was found to be 62%.

For the compound `O=c1c(Nc2ccc(Cl)cc2)c(N[C@H]2CC[C@H](Oc3ccc(C(F)(F)F)cc3)CC2)c1=O` [Compound 42, 3-((4-Chlorophenyl)amino)-4-(((1,4-trans)-4-(4-(trifluoromethyl)phenoxy)cyclohexyl)amino)cyclobut-3-ene-1,2-dione], the activity at 10 µM was determined as 93%.

For `N#Cc1ccc(O[C@H]2CC[C@H](Nc3c(Nc4ccc(Cl)cc4)c(=O)c3=O)CC2)cc1` [Compound 43, 4-(((1,4-trans)-4-((2-((4-Chlorophenyl)amino)-3,4-dioxocyclobut-1-en-1-yl)amino)cyclohexyl)oxy)benzonitrile], the activity at 10 µM came out at 87%.

As for `O=c1c(Nc2ccc(Cl)cc2)c(N[C@H]2CC[C@H](Oc3ccc([N+](=O)[O-])cc3)CC2)c1=O` [Compound 44, 3-((4-Chlorophenyl)amino)-4-(((1,4-trans)-4-(4-nitrophenoxy)cyclohexyl)amino)cyclobut-3-ene-1,2-dione], the activity at 10 µM turned out to be 147%.

On to `CS(=O)(=O)c1ccc(O[C@H]2CC[C@H](Nc3c(Nc4ccc(Cl)cc4)c(=O)c3=O)CC2)cc1` [Compound 45, 3-((4-Chlorophenyl)amino)-4-(((1,4-trans)-4-(4-(methylsulfonyl)phenoxy)cyclohexyl)amino)cyclobut-3-ene-1,2-dione], for which the activity at 10 µM was determined as 79%.

Take `O=c1c(Nc2ccc(C(F)(F)F)cc2)c(N[C@H]2CC[C@H](Oc3ccc(C(F)(F)F)cc3)CC2)c1=O` [Compound 46, 3-(((1,4-trans)-4-(4-(Trifluoromethyl)phenoxy)cyclohexyl)amino)-4-((4-(trifluoromethyl)phenyl)amino)cyclobut-3-ene-1,2-dione]: the activity at 10 µM was determined as 71%.

For `N#Cc1ccc(O[C@H]2CC[C@H](Nc3c(Nc4ccc(C(F)(F)F)cc4)c(=O)c3=O)CC2)cc1` [Compound 47, 4-(((1,4-trans)-4-((3,4-Dioxo-2-((4-(trifluoromethyl)phenyl)amino)cyclobut-1-en-1-yl)amino)cyclohexyl)oxy)benzonitrile], the activity at 10 µM turned out to be 51%.

On to `O=c1c(Nc2ccc(C(F)(F)F)cc2)c(N[C@H]2CC[C@H](Oc3ccc([N+](=O)[O-])cc3)CC2)c1=O` [Compound 48, 3-(((1,4-trans)-4-(4-Nitrophenoxy)cyclohexyl)amino)-4-((4-(trifluoromethyl)phenyl)amino)cyclobut-3-ene-1,2-dione], for which the activity at 10 µM was 91%.

In the case of `CC(C)(C)c1ccc(Nc2c(N[C@H]3CC[C@H](Oc4ccc(C(F)(F)F)cc4)CC3)c(=O)c2=O)cc1` [Compound 50, 3-((4-(tert-Butyl)phenyl)amino)-4-(((1,4-trans)-4-(4-(trifluoromethyl)phenoxy)cyclohexyl)amino)cyclobut-3-ene-1,2-dione], the activity at 10 µM was 204%.
